1 compound from US20250241895A1 (GH RESEARCH IRELAND LIMITED, priority 2022, published 2025) can be followed below.

The nature of the data set: Pharmacokinetics of 5-MeO-DMT and bufotenine after inhalation. Conditions: LLOQ 25 pg/ml. It is filed as in vivo, human. The protocol:
Blood samples were obtained at 1; 2; 4; 7; 10; 15; 20; 30; 45 min and 1; 1.5; 2; 3; 4 hours after administration.
PK parameters were generated by algebraic analysis of the concentration versus time plots for each individual. The analysis was carried out using the software Phoenix WinNonlin 6.3.

The structures appear in SMILES notation.

`CN(C)CCc1c[nH]c2ccc(O)cc12` [bufotenine]: the “samples with bufotenine concentration above LLOQ” value is “Only in few samples”. Also, the bufotenine blood concentration (from 15 min onwards after 5-MeO-DMT inhalation) is < 25 pg/mL.
